Data from US11730720B2, “ALK5 inhibitors” (THERAVANCE BIOPHARMA R&D IP, LLC, priority 2018, dated 2023).

Columns and labels:
[1] = target: T1, recombinant human ALK5 (TGF-βR1) protein (Homo sapiens, UniProt P36897); assay: Biochemical ALK5 (TGF-βR1) assay to measure pKi (LANCE Ultra ULight kinase assay); details: apparent pKi, converted from pIC50 using the Cheng-Prusoff equation
T1 construct: purchased Life Technologies PR9075A
T1 sequence (P36897 34-503): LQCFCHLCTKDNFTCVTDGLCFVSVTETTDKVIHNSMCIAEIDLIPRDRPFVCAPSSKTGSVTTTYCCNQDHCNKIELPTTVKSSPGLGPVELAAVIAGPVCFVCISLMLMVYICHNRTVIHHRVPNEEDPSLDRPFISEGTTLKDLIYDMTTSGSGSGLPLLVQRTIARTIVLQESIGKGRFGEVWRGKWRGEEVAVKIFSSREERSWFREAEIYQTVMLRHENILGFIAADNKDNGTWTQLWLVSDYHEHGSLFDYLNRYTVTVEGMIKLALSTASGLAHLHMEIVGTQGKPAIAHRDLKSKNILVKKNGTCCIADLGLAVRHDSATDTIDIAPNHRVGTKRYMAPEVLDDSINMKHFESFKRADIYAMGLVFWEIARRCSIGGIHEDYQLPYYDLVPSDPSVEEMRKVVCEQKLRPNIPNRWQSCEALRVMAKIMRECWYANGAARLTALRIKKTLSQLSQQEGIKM
How it was run: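 TR-FRET kinase format: compound dose range 10 μM–25 pM equilibrated 60 min with human ALK5 and ULight-labelled topoisomerase 2α peptide in HEPES/MgCl2 buffer pH 7.5 with DTT. Reaction started with ATP (125 μM stock, 5× final), 60 min at 37° C, stopped with EDTA/Eu-anti-phospho antibody; pKi derived from pIC50 via Cheng-Prusoff.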

[2] = test system: TGF-β-stimulated SMAD3 phosphorylation in BEAS-2B cells; assay: Cellular ALK5 potency assay, inhibition of TGF-β stimulated pSMAD3 formation in BEAS-2B cells; format: cell-based; details: Homo sapiens, inhibition of TGF-β (10 ng/mL) stimulated pSMAD3 formation, 1 hour compound incubation, read-out: BEAS2B pIC50 (converted)
How it was run: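 Phospho-SMAD3 was quantified by AlphaLISA in lysates of human lung epithelial BEAS-2B cells. Compound was added 1 h (37 °C, HEPES/BSA-supplemented HBSS) before a 30 min challenge with 10 ng/mL TGF-β. Values are pIC50 relative to stimulated cells without compound.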

| SMILES | Ki [1] | IC50 [2] |
| --- | --- | --- |
| CCOC(=O)CNCCn1cc(-c2cnc3ccc(-c4c[nH]nc4-c4cc(Cl)ccc4F)nc3c2)cn1 [Compound 1-127, ethyl 2-[2-[4-[6-[3-(5-chloro-2-fluoro-phenyl)-1H-pyrazol-4-yl]-1,5-naphthyridin-3-yl]pyrazol-1-yl]ethylamino]acetate] | ≤ 0.0316 nM | 200 to 1260 nM |
| CN1CCN(c2ccc(Nc3cnc4ccc(-c5c[nH]nc5-c5cc(Cl)ccc5F)nc4c3)nc2)CC1 [Compound 1-29, 6-(3-(5-chloro-2-fluorophenyl)-1H-pyrazol-4-yl)-N-(5-(4-methylpiperazin-1-yl)pyridin-2-yl)-1,5-naphthyridin-3-amine] | 0.0398 to 0.316 nM | 25.1 to 158 nM |
| CN(C)C1CCN(c2cnc3ccc(-c4c(-c5cc(Cl)ccc5F)nc5ccccn45)cc3c2)C1 (racemic) [Compound 19-7, rac-(3S)-1-[6-[2-(5-chloro-2-fluoro-phenyl)imidazo[1,2-a]pyridin-3-yl]-3-quinolyl]-N,N-dimethyl-pyrrolidin-3-amine] | 0.0398 to 0.316 nM | 200 to 1260 nM |
| CN1CC=C(c2nc3n(n2)CCN(c2cnc4ccc(-c5c[nH]nc5-c5cc(Cl)ccc5F)nc4c2)C3)C1 [Compound 1-86, 2-(3-(5-chloro-2-fluorophenyl)-1H-pyrazol-4-yl)-7-(2-(1-methyl-2,5-dihydro-1H-pyrrol-3-yl)-5,6-dihydro-[1,2,4]triazolo[1,5-a]pyrazin-7(8H)-yl)-1,5-naphthyridine] | ≤ 0.0316 nM | 25.1 to 158 nM |
| CNC(=O)C1CN(c2cnc3ccc(-c4c[nH]nc4-c4cc(Cl)ccc4F)nc3c2)CCN1C (racemic) [Compound 1-77, rac-(2R)-4-[6-[3-(5-chloro-2-fluoro-phenyl)-1H-pyrazol-4-yl]-1,5-naphthyridin-3-yl]-N,1-dimethyl-piperazine-2-carboxamide] | 0.0398 to 0.316 nM | 25.1 to 158 nM |
| Fc1cc(F)c(-c2n[nH]cc2-c2ccc3ncc(NCC4CN5CCN4CC5)cc3n2)cc1Cl (stereo not drawn) [Compound 6-4, 6-[3-(5-chloro-2,4-difluoro-phenyl)-1H-pyrazol-4-yl]-N-(1,4-diazabicyclo[2.2.2]octan-2-ylmethyl)-1,5-naphthyridin-3-amine] | 0.0398 to 0.316 nM | 25.1 to 158 nM |
| Fc1cc(F)c(-c2n[nH]cc2-c2ccc3ncc(NC[C@@H]4CCCCN4)cc3n2)cc1Cl [Compound 6-12, 6-[3-(5-chloro-2,4-difluoro-phenyl)-1H-pyrazol-4-yl]-N-[[(2S)-2-piperidyl]methyl]-1,5-naphthyridin-3-amine] | 0.398 to 3.16 nM | 25.1 to 158 nM |
| Fc1cc(F)c(-c2n[nH]cc2-c2ccc3ncc(NCCN4CCCC4)cc3n2)cc1Cl [Compound 6-7, 6-[3-(5-chloro-2,4-difluoro-phenyl)-1H-pyrazol-4-yl]-N-(2-pyrrolidin-1-ylethyl)-1,5-naphthyridin-3-amine] | 0.398 to 3.16 nM | 25.1 to 158 nM |
| CN1CCN(CCNc2cnc3ccc(-c4c[nH]nc4-c4cc(Cl)c(F)cc4F)nc3c2)CC1 [Compound 6-2, 6-[3-(5-chloro-2,4-difluoro-phenyl)-1H-pyrazol-4-yl]-N-[2-(4-methylpiperazin-1-yl)ethyl]-1,5-naphthyridin-3-amine] | 0.0398 to 0.316 nM | ≤ 20 nM |
| Fc1ccc(Cl)cc1-c1n[nH]cc1-c1ccc2ncc(NCCN3CCNCC3)cc2n1 [Compound 1-21, 6-[3-(5-chloro-2-fluoro-phenyl)-1H-pyrazol-4-yl]-N-(2-piperazin-1-ylethyl)-1,5-naphthyridin-3-amine] | 0.0398 to 0.316 nM | 25.1 to 158 nM |
| CNCCn1ccc(-c2cnc3ccc(-c4c[nH]nc4-c4cc(Cl)ccc4F)nc3c2)n1 [Compound 1-92, 2-[3-[6-[3-(5-chloro-2-fluoro-phenyl)-1H-pyrazol-4-yl]-1,5-naphthyridin-3-yl]pyrazol-1-yl]-N-methyl-ethanamine] | 0.0398 to 0.316 nM | ≤ 20 nM |
| Fc1ccc(Cl)cc1-c1nc2ccccn2c1-c1ccc2ncc(-c3cn[nH]c3)cc2n1 [Compound 3-10, 2-[2-(5-chloro-2-fluoro-phenyl)imidazo[1,2-a]pyridin-3-yl]-7-(1H-pyrazol-4-yl)-1,5-naphthyridine] | 0.398 to 3.16 nM | 1580 to 10000 nM |
| COC(=O)c1cnc2ccc(-c3c(-c4cc(Cl)ccc4F)nnn3Cc3ccccc3)nc2c1 [Compound 4-2, methyl 6-[3-benzyl-5-(5-chloro-2-fluoro-phenyl)triazol-4-yl]-1,5-naphthyridine-3-carboxylate] | 3.98 to 31.6 nM | 200 to 1260 nM |
| CC1CN(c2cnc3ccc(-c4c[nH]nc4-c4cc(Cl)ccc4F)nc3c2)CC(C)N1CCN (stereo not drawn) [Compound 1-122, 2-[4-[6-[3-(5-chloro-2-fluoro-phenyl)-1H-pyrazol-4-yl]-1,5-naphthyridin-3-yl]-2,6-dimethyl-piperazin-1-yl]ethanamine] | 0.0398 to 0.316 nM | 25.1 to 158 nM |
| Fc1cc(F)c(-c2n[nH]cc2-c2ccc3ncc(-c4nnn5c4NCCC5)cc3n2)cc1Cl [Compound 6-47, 2-[3-(5-chloro-2,4-difluoro-phenyl)-1H-pyrazol-4-yl]-7-(4,5,6,7-tetrahydrotriazolo[1,5-a]pyrimidin-3-yl)-1,5-naphthyridine] | 0.398 to 3.16 nM | 25.1 to 158 nM |
| NCCn1cc(-c2cnc3ccc(-c4nc[nH]c4-c4ccc(F)c(F)c4)cc3c2)cn1 [Compound 23-1, 2-(4-(6-(5-(3,4-difluorophenyl)-1H-imidazol-4-yl)quinolin-3-yl)-1H-pyrazol-1-yl)ethan-1-amine] | 0.0398 to 0.316 nM | 25.1 to 158 nM |
| Fc1ccc(Cl)cc1-c1[nH]cnc1-c1ccc2ncc(NC[C@@H]3CCCN3)cc2n1 [Compound 2-30, 6-[5-(5-chloro-2-fluoro-phenyl)-1H-imidazol-4-yl]-N-[[(2S)-pyrrolidin-2-yl]methyl]-1,5-naphthyridin-3-amine] | 0.398 to 3.16 nM | 200 to 1260 nM |
| CN1CC=C(c2cnc3ccc(-c4c[nH]nc4-c4ccc(F)c(F)c4)nc3c2)C1 [Compound 8-22, 2-(3-(3,4-difluorophenyl)-1H-pyrazol-4-yl)-7-(1-methyl-2,5-dihydro-1H-pyrrol-3-yl)-1,5-naphthyridine] | 0.398 to 3.16 nM | 25.1 to 158 nM |
| Fc1ccc(Cl)cc1-c1[nH]nnc1-c1ccc2ncc(N3CCNCC3)cc2c1 [Compound 18-5, 6-[5-(5-chloro-2-fluoro-phenyl)-1H-triazol-4-yl]-3-piperazin-1-yl-quinoline] | 0.398 to 3.16 nM | 25.1 to 158 nM |
| Fc1ccc(Cl)cc1-c1[nH]cnc1-c1ccc2ncc(-c3cn[nH]c3)cc2c1 [Compound 17-1, 6-(5-(5-chloro-2-fluorophenyl)-1H-imidazol-4-yl)-3-(1H-pyrazol-4-yl)quinoline] | 0.0398 to 0.316 nM | ≤ 20 nM |
| COC(=O)[C@H]1CN(c2cnc3ccc(-c4c[nH]nc4-c4cc(Cl)ccc4F)nc3c2)CCN1CCN [Compound 1-134, methyl (2R)-1-(2-aminoethyl)-4-[6-[3-(5-chloro-2-fluoro-phenyl)-1H-pyrazol-4-yl]-1,5-naphthyridin-3-yl]piperazine-2-carboxylate] | 0.398 to 3.16 nM | 25.1 to 158 nM |
| CC(C)N1CCN(C(C)(C)CNc2cnc3ccc(-c4c[nH]nc4-c4cc(Cl)ccc4F)nc3c2)CC1 [Compound 1-5, 6-[3-(5-chloro-2-fluoro-phenyl)-1H-pyrazol-4-yl]-N-[2-(4-isopropylpiperazin-1-yl)-2-methyl-propyl]-1,5-naphthyridin-3-amine] | 3.98 to 31.6 nM | 25.1 to 158 nM |
| OCCN1CCN(c2cnc3ccc(-c4c[nH]nc4-c4ccc(F)c(F)c4)nc3c2)CC1 [Compound 8-8, 2-[4-[6-[3-(3,4-difluorophenyl)-1H-pyrazol-4-yl]-1,5-naphthyridin-3-yl]piperazin-1-yl]ethanol] | 3.98 to 31.6 nM | 25.1 to 158 nM |
| CN(C)C1CCN(c2cnc3ccc(-c4c[nH]nc4-c4cc(Cl)ccc4F)nc3c2)C1 (racemic) [Compound 1-34, rac-(3S)-1-[6-[3-(5-chloro-2-fluoro-phenyl)-1H-pyrazol-4-yl]-1,5-naphthyridin-3-yl]-N,N-dimethyl-pyrrolidin-3-amine] | ≤ 0.0316 nM | 25.1 to 158 nM |
| Fc1ccc(Cl)cc1-c1[nH]cnc1-c1ccc2ncc(-c3cn[nH]c3)cc2n1 [Compound 2-17, 2-[5-(5-chloro-2-fluoro-phenyl)-1H-imidazol-4-yl]-7-(1H-pyrazol-4-yl)-1,5-naphthyridine] | 0.0398 to 0.316 nM | 25.1 to 158 nM |
| COCc1cccc(-c2n[nH]cc2-c2ccc3ncc(N4CCNCC4)cc3n2)c1 [Compound 14-16, 2-[3-[3-(methoxymethyl)phenyl]-1H-pyrazol-4-yl]-7-piperazin-1-yl-1,5-naphthyridine] | 3.98 to 31.6 nM | 200 to 1260 nM |
| CN(C)C1CCN(c2cnc3ccc(-c4c[nH]nc4-c4cc(Cl)ccc4F)nc3c2)CC1 [Compound 1-45, 1-[6-[3-(5-chloro-2-fluoro-phenyl)-1H-pyrazol-4-yl]-1,5-naphthyridin-3-yl]-N,N-dimethyl-piperidin-4-amine] | 0.0398 to 0.316 nM | ≤ 20 nM |
